The source of these data is ChEMBL document CHEMBL4339247, “Ascomylactams A-C, Cytotoxic 12- or 13-Membered-Ring Macrocyclic Alkaloids Isolated from the Mangrove Endophytic Fungus Didymella sp. CYSK-4, and Structure Revisions of Phomapyrrolidones A and C” (J Nat Prod, 2019).

Holding throughout (type): functional, cell-based
Assay [1] has as its system MDA-MB-435. In words: Cytotoxicity in human MDA-MB-435 cells assessed as reduction in cell viability incubated for 72 hrs by MTT assay. As to conditions: MDA-MB-435, 72 h.
The subject of assay [2] is MDA-MB-231. In words: Cytotoxicity in human MDA-MB-231 cells assessed as reduction in cell viability incubated for 72 hrs by MTT assay. Conditions: MDA-MB-231, 72 h. (In general: Tetrazolium assays rely on reduction of a dye to a coloured formazan, in cell work by metabolically active cells.)
Assay [3] deals with SNB-19. As to the kind of experiment: Cytotoxicity in human SNB19 cells assessed as reduction in cell viability incubated for 72 hrs by MTT assay. As to conditions: SNB-19, 72 h.
Assay [4] deals with HCT-116. In words: Cytotoxicity in human HCT116 cells assessed as reduction in cell viability incubated for 72 hrs by MTT assay. As to conditions: HCT-116, 72 h.
The subject of assay [5] is NCI-H460. In words: Cytotoxicity in human NCI-H460 cells assessed as reduction in cell viability incubated for 72 hrs by MTT assay. Conditions: NCI-H460, 72 h.
Assay [6] deals with PC-3. As to the kind of experiment: Cytotoxicity in human PC3 cells assessed as reduction in cell viability incubated for 72 hrs by MTT assay. As to conditions: PC-3, 72 h.

Broadly, the IC50 is the concentration that gives 50% inhibition. Turning to `CC1=C[C@@]2(C)C(=C(C)[C@H]3[C@@H]4C[C@H](C)C[C@H](C)[C@H]4[C@@H]4Oc5ccc(cc5)C[C@@]5(O)C=C(C(=O)N5)C(=O)[C@@H]2[C@@H]43)[C@H]1C`, the IC50 is 12 µM in assay [1]; 6.6 µM in assay [2]; 18 µM in assay [3]; 4.5 µM in assay [4]; 13 µM in assay [5]; 20 µM in assay [6].

`CC1=C[C@@]2(C)C(=C(C)[C@H]3[C@@H]4C[C@H](C)C[C@H](C)[C@H]4[C@H]4Oc5ccc(cc5)C[C@@H]5C(=O)NC(=O)[C@H]5C(=O)[C@@H]2[C@@H]43)[C@H]1C`: the IC50 in assay [1] is 26 µM; in assay [2], 30 µM; in assay [3], > 50 µM; in assay [4] it was 25 µM; in assay [5], 28 µM; in assay [6] it was > 50 µM.

`CC1=C[C@@]2(C)C(=C(C)[C@H]3[C@@H]4C[C@H](C)C[C@H](C)[C@H]4[C@H]4Oc5ccc(cc5)C[C@]5(O)NC(=O)[C@]6(O[C@H]65)C(=O)[C@@H]2[C@@H]43)[C@H]1C`: the IC50 in assay [1] is 7.8 µM; in assay [2], 5.1 µM; in assay [3] it was 7.8 µM; in assay [4], 4.2 µM; in assay [5] it was 4.4 µM; in assay [6] it was 7.5 µM.

Consider `CC1=C[C@@]2(C)C(=C(C)[C@H]3[C@@H]4C[C@H](C)C[C@H](C)[C@H]4[C@H]4Oc5ccc(cc5)C[C@]5(O)NC(=O)[C@]6(O[C@H]65)C(=O)[C@H]2[C@@H]43)[C@H]1C`, for which the IC50 in assay [1] was determined as 16 µM; in assay [2], 12 µM; in assay [3], 29 µM; in assay [4] it was 15 µM; in assay [5], 12 µM; in assay [6], 22 µM.

As to `CO[C@@H]1/C2=C(\O)[C@H]3[C@H]4[C@H](Oc5ccc(cc5)C[C@]1(O)NC2=O)[C@H]1[C@@H](C[C@H](C)C[C@@H]1C)[C@@H]4C(C)=C1[C@@H](C)C(C)=C[C@@]13C`, the IC50 in assay [1] was 4.9 µM; in assay [2], 5.9 µM; in assay [3], 6.8 µM; in assay [4] it was 5.5 µM; in assay [5] it was 4.4 µM; in assay [6], 5.7 µM.

Turning to `COc1cccc2c1C(=O)c1c(O)c3c(c(O)c1C2=O)C[C@@](O)(C(=O)CO)C[C@@H]3O[C@H]1C[C@H](N)[C@@H](O)[C@H](C)O1` [EPIRUBICIN], in assay [3], the IC50 amounted to 2.3 µM.
